Patent US12629359B2 (UNIVERSITA' DEGLI STUDI DI BRESCIA, priority 2020, dated 2026)
“Also recorded” adds a separate entry of the source.

What was measured:
[1] = target: T1, alpha-synuclein/Synapsin III interaction (Homo sapiens, UniProt O14994+P37840); experiment: Acceptor photobleaching FRET of alpha-synuclein/Synapsin III interaction in neuronal-differentiated SK-N-SH cells; type: cell-based; settings: 10 μM, 15 min; for stimulation of alpha-synuclein/Synapsin III interaction (FRET efficiency), in words: vs basal; for % FRET efficiency change vs MPH-treated cells: vs MPH 10 μM
T1 construct: expressed in transfected cells; host or cells: neuronal-differentiated (retinoic acid) human SK-N-SH neuroblastoma cells, transient transfection with Lipofectamine 3000
T1 sequence (O14994 whole entry, one chain of several): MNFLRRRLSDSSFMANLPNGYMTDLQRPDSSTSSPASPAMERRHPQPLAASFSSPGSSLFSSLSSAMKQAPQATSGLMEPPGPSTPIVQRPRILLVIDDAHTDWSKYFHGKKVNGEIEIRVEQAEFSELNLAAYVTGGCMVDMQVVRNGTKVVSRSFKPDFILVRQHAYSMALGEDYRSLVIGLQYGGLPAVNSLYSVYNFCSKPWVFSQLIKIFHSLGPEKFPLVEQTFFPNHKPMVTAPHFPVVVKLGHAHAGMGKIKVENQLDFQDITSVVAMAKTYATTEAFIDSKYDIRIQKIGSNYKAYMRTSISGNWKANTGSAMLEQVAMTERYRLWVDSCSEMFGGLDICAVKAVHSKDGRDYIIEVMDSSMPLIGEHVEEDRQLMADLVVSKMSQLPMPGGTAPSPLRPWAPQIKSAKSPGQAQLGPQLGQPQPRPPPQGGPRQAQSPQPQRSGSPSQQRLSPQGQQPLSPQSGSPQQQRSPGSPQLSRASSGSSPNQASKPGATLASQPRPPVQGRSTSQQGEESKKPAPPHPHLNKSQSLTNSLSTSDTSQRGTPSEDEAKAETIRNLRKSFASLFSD
Procedure: The ability of the different compound to stimulate alpha-synuclein/Synapsin III interaction was evaluated by acceptor photobleaching FRET or FLIM in neuronal-like cells. In particular, we used neuronal-differentiated SK—N—SH neuroblastoma cells transiently transfected with red fluorescent protein (RFP)-tagged human wild type alpha-synuclein and green fluorescent protein (GFP)-tagged the human 63 kDa Synapsin III isoform.
Acceptor photobleaching FRET microscopy allows an accurate evaluation of protein-protein interaction through the measurement of FRET efficiency. This parameter is indicative of the increase of donor fluorescence after complete photobleaching of the acceptor fluorescence, within a FRET pair of fluorophores (where the emission wavelength of a donor falls within the excitation wavelength of an acceptor). Since FRET efficiency is detectable only when the two fluorophores are sufficiently close to ensure that their linked proteins are interacting, the molecular proximity of these latter results strictly dependent on this parameter^36,37. […] Human neuroblastoma SK—N—SH cells were grown in complete medium comprising Dulbecco's modified Eagle's medium with 1000 mg glucose/l supplemented with 10% heat-inactivated fetal bovine serum, 100 μg/ml penicillin and 100 μg/ml streptomycin. Cells were maintained at 37° C. under a humidified atmosphere of 5% CO2 and […]. For FRET studies, SK—N—SH cells were seeded onto poli-D-lysine-coated 13 mm glass coverslips in 24-well plates (15000 cells per coverslip) and were maintained in differentiation medium for ten days by daily adding 10 μM retinoic acid to the medium. […] Fixed cells were analyzed by means of a Zeiss confocal laser microscope LSM 880 (Carl Zeiss) with the laser set on A=488-543. After identifying double positive cells three-to-six regions of interest (ROI) were analyzed for 4 series. Two images of basal condition (Pre-bleaching) were acquired before bleaching the RFP acceptor fluorophore with laser 543 set at 65% power. Then, other two images were acquired after the bleaching (Post-bleaching). The FRET efficiency (intended as the GFP recovery after RFP photobleaching) was measured by using Zen black software (Carl Zeiss). The average intensity of the background (outside the cell) was subtracted from the average intensity of the ROI and all the FRET values resulting from the different ROI were used for statistical analysis.
Human neuroblastoma SK—N—SH cells were grown in complete medium comprising Dulbecco's modified Eagle's medium with 1000 mg glucose/l supplemented with 10% heat-inactivated fetal bovine serum, 100 μg/ml penicillin and 100 μg/ml streptomycin. Cells were maintained at 37° C. under a humidified atmosphere of 5% CO2 and […]. For FRET studies, SK—N—SH cells were seeded onto poli-D-lysine-coated 13 mm glass coverslips in 24-well plates (15000 cells per coverslip) and were maintained in differentiation medium for ten days by daily adding 10 μM retinoic acid to the medium. […] Fixed cells were analyzed by means of a Zeiss confocal laser microscope LSM 880 (Carl Zeiss) with the laser set on λ=488-543. After identifying double positive cells three-to-six regions of interest (ROI) were analyzed for 4 series. Two images of basal condition (Pre-bleaching) were acquired before bleaching the RFP acceptor fluorophore with laser 543 set at 65% power. Then, other two images were acquired after the bleaching (Post-bleaching). The FRET efficiency (intended as the GFP recovery after RFP photobleaching) was measured by using Zen black software (Carl Zeiss). The average intensity of the background (outside the cell) was subtracted from the average intensity of the ROI and all the FRET values resulting from the different ROI were used for statistical analysis.

[2] = system: primary mesencephalic cultures; experiment: MTT cell viability assay; type: cell-based, mouse; settings: 24 h
Procedure: The cytotoxic effect of compounds treatment was measured by evaluating mitochondrial dehydrogenase activity using the MTT salt assay.
Neuronal differentiated SK—N—SH cells were thus exposed to different concentrations of I-threo, IV-threo, I-erythro, V-threo and V-erythro as described above, and then used for the MTT cell viability assay.
Animals: C57BL/6J wt mice (C57BL/6J) (Charles River, Wilmington, MA) used in this study, were bred in our animal house facility at the Department of Molecular and Translational Medicine of University of Brescia. Animals were maintained under a 12h light-dark cycle at a room temperature (rt) of 22° C. and had ad libitum food and water. All experiments were made in accordance to Directive 2010/63/EU of the European Parliament and of the Council of 22 Sep. 2010 on the protection of animals used. All experimental and surgical procedures conformed to the National Research Guide for the Care and Use of Laboratory Animals were approved by the Animal Research Committees of the University of Brescia (Protocol Permit 719/2015-PR). All achievements were made to minimize animal suffering and to reduce the number of animals used. Primary neuronal cultures from mesencephalic tissues were dissected from C57BL/6J 13-days embryos. Briefly, after mechanical dissociation the single cells were re-suspended in Neurobasal medium containing 100 μg/ml penicillin, 100 μg/ml streptomycin, 0.5 mM glutamine and 1% B27 supplement. Cells were then centrifuged and cell count and viability assays were performed using the Trypan Blue exclusion test. Cells were seeded onto poly-D-lysine-coated glass coverslides in 24-well plates (14 μg/mL) for immunocytochemistry (100000 cells/well). Cells were maintained at 37° C. under a humidified atmosphere of 5% CO2 and […] for at least 10 days in vitro (DIV 10) prior to their use to allow their maturation. At DIV 10, cells were treated with increasing concentrations (0.01 μM-0.1 μM-1 μM-[…]) of the different compounds (I-threo, IV-threo, I-erythro, V-threo, VI-threo). Twenty-four h after the treatments, culture medium was removed and 300 μL of MTT 0.5 mg/mL diluted in culture medium was added to each well. After 90′ incubation at 37° C., the medium was removed and 250 μL aliquots of DMSO were added to each well to solubilize the formazan crystals. Absorbance was measured at 570 nm using a microplate reader. Cell viability was expressed as absorbance value.

[3] = system: alpha-synuclein aggregation in SK—N—SH cells; experiment: Alpha-synuclein aggregation after glucose deprivation in SK-N-SH alpha-synuclein stable clones (immunocytochemistry); type: cell-based, human; settings: for alpha-synuclein aggregates seen in images after GD: 24 h, vs non-treated (NT) cells, preliminary
Procedure: Human neuroblastoma SK—N—SH full length (fl) alpha-synuclein stable clones were seeded onto poly-D-lysine-coated glass coverslides in 24-well plates and were grown in complete medium comprising Dulbecco's modified Eagle's medium with 1000 mg glucose/l supplemented with 10% heat-inactivated fetal bovine serum, 100 μg/ml penicillin and 100 μg/ml streptomycin. Cells were maintained at 37° C. under a humidified atmosphere of 5% CO2 and […]. At 80% confluence, cells underwent glucose deprivation (GD) in order to induce alpha-synuclein aggregation (Bellucci, A.; et al. Journal of neurochemistry 2008, 106, 560-577). Briefly, GD was performed through an incubation of the cells with Hank's balanced salt solution supplemented with 2 mM glutamine and 10% heat-inactivated fetal bovine serum, for 1 h at 37° C. […] After 24 h of treatment, cells were fixed by incubating for 15 min in 4% paraformaldehyde with 4% sucrose in 1 M PBS, pH 7.4. The fixed cells were then stored in PBS-containing 0.05% sodium azide. Slides were incubated for 1 h at room temperature in blocking solution [2% w/v bovine serum albumin (BSA) plus 3% v/v normal goat serum in PBS], then overnight at 4° C. with the primary antibody (Syn211 antibody against alpha-synuclein) at the optimal working dilution. On the following day, cells were incubated for 1 h at room temperature with the Cy3-conjugated secondary antibody diluted in 0.1% Triton X-100 PBS plus BSA 1 mg/ml. Finally, cell nuclei were counterstained with Hoechst 33258 dye, and the coverslips were mounted onto glass slides using Vectashield.

[4] = system: aged human alpha-synuclein transgenic mouse model of Parkinson's disease; settings: independent of dopamine transporter inhibition; abolished by Synapsin III gene silencing; cited from earlier work
[5] = system: advanced Parkinson's disease; settings: cited from earlier work
[6] = system: alpha-synuclein aggregation in primary mesencephalic neurons; experiment: Alpha-synuclein aggregation in primary mouse midbrain neurons exposed to glucose deprivation; type: cell-based; settings: I-threo, VI-threo 50 and 100 nM, MPH 100 nM

## COC(=O)[C@@H](c1ccc2ccccc2c1)C1CCCCN1.Cl (stereo partly drawn) [IV-threo]
[1]
  stimulation of alpha-synuclein/Synapsin III interaction (FRET efficiency), in words: not able to stimulate alpha-synuclein/Synapsin III interaction; also recorded: No significant increase
[2]; 100 μM
  cell viability (MTT) at 100 μM: the same profile of I-threo; also recorded: significant decrease in cell viability

## COC(=O)[C@@H](Cc1ccc(C)cc1)C1CCCCN1.Cl (stereo partly drawn) [IX-threo]
[1]
  % FRET efficiency change vs MPH-treated cells: +4.6%

## COC(=O)C(c1ccccc1)C1CCCCN1 (stereo not shown) [MPH, Methylphenidate, reference compound]
[3]; 10 μM
  alpha-synuclein aggregates seen in images after GD: a reduction in the formation of alpha-synuclein aggregates
[3]; Homo sapiens, SK-N-SH cells, read-out: EC50 in reducing alpha-synuclein aggregation
  EC50: 37.3 µM
[4]
  Synapsin III-dependent locomotor activity: over-stimulate a Synapsin III-dependent locomotor activity
[5]
  freezing of gait: efficiently counteract freezing of gait

## COC(=O)[C@@H](c1ccc(-c2ccccc2)cc1)C1CCCCN1.Cl (stereo partly drawn) [V-threo]
[1]
  stimulation of alpha-synuclein/Synapsin III interaction (FRET efficiency), in words: not able to stimulate alpha-synuclein/Synapsin III interaction; also recorded: No significant increase
[2]; 0.01-100 μM tested
  concentration from which markedly toxic (MTT): ≥ 100 nM
[2]; low concentrations
  cytotoxicity (MTT), in words: cytotoxicity at low concentrations

## COC(=O)[C@@H](c1ccc(C)cc1)C1CCCCN1C.Cl (stereo partly drawn) [VI-threo, threo methyl 2-(1-methylpiperidin-2-yl)-2-(p-tolyl)acetate hydrochloride]
[1]; neuronally differentiated SK-N-SH cells
  % FRET efficiency change vs control untreated cells: +3.4%
[3]; 10 μM
  alpha-synuclein aggregates seen in images after GD: no aggregates were observed
[3]; 10 μM, 24 h after 1 h glucose deprivation, vs untreated, hydrochloride
  formation of alpha-synuclein inclusions after GD (immunofluorescence intensity and average particle size): significantly reduce the formation of alpha-synuclein inclusions; also recorded: significantly reduce alpha-synuclein aggregation in vitro
[6]
  alpha-synuclein inclusion formation (total immunofluorescence intensity and particle size): did not reduce alpha-synuclein aggregation
[2]; concentrations reducing aggregation or stimulating interaction
  toxic effects (MTT) at the working concentrations: did not exhibit toxic effects

## COC(=O)[C@@H](Cc1ccccc1)C1CCCCN1.Cl (stereo partly drawn) [VII-threo, threo methyl 3-phenyl-2-(piperidin-2-yl)propanoate hydrochloride]
[1]
  % FRET efficiency change vs MPH-treated cells: +4.3%
